Results on six molecules are retold here after publication PMC4881748 (Journal of the American Chemical Society, 2016).

One assay addresses BoNT/A LC (Clostridium botulinum, UniProt P0DPI0). The class given is biochemical, C. botulinum.
Another assay deals with BoNT/A. As to conditions: cited from earlier work.
Assay [1] relates to BoNT/A SNAP-25 cleavage in hiPSC-derived neurons. Format: cell-based, human.
Assay [2] shares this test system. The class given is cell-based, human. This is another data set of the same source.

Sequence of BoNT/A LC (P0DPI0 2-448 limits assumed): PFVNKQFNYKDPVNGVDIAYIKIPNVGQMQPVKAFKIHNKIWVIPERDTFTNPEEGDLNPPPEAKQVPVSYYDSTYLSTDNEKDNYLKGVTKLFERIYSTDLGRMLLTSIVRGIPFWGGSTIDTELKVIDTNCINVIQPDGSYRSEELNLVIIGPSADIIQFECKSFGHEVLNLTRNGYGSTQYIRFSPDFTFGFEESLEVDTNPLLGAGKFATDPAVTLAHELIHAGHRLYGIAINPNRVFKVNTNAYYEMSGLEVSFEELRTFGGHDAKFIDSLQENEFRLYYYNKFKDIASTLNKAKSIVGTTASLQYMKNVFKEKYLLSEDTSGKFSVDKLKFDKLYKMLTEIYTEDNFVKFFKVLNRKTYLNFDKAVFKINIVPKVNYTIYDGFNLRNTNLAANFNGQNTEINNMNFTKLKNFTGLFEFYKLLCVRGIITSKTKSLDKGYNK

Take `O=C(O)CCC(=O)NO` [4-(hydroxyamino)-4-oxobutanoic acid]: at BoNT/A LC, the “Inhibition in the LC enzyme assay” value is “did not demonstrate any inhibition”.
Turning to `O=C1CCC(=O)N1O` [N-hydroxysuccinimide (NHS), N-hydroxysuccinimide], at BoNT/A LC, the “Inhibition in the LC enzyme assay” value is “did not demonstrate any inhibition”.
Regarding `CO/C1=C\C(C)=C\[C@@H](C)[C@@H](O)[C@@H](C)C/C(C)=C/C=C/[C@H](OC)[C@@H]([C@@H](C)[C@@H](O)[C@H](C)[C@@]2(O)C[C@@H](O)[C@H](C)[C@@H](C(C)C)O2)OC1=O` [bafilomycin A1], in the assay on BoNT/A, the “Activity when added 0.5 h after toxin exposure” value was “reduced activity” and the “Activity when added simultaneously or immediately after BoNT/A” value is “presented activity”. In addition, the “Inhibition of SNAP-25 cleavage with delayed inhibitor addition” value in assay [1] was “initially effective”.
With `CC(=O)O[C@@H]1C[C@H](O)[C@@]23CO[C@@H](O)[C@]1(C)[C@@H]2C[C@@H](O)[C@]1(C)[C@@H]3C(=O)[C@H](OC(C)=O)[C@@]2(C)[C@H](c3ccoc3)C[C@H]3O[C@]321` [toosendanin], the “Inhibition of SNAP-25 cleavage with delayed inhibitor addition” value in assay [1] is reported as “initially effective”.
With “N-acetyl-N-(benzyloxy)acetamide [Compound 10]”, the “EC50, SNAP-25 protection in cellular assay” value in assay [2] was “Inactive”.
On the same count and under the same terms, the entry for “O-benzyl N-hydroxysuccinimide [Compound 7]” is “Inactive”.
